# In patent US20260256771A1, “GALUNISERTIB FOR USE IN THE TREATMENT OF ANDROGENIC ALOPECIA” (SAÚDE VIÁVEL, S.A., priority 2022, published 2026):
# Experiments:
# [1] = test system: Ki67 proliferation marker; test: Immunohistochemistry of cryo-sectioned HFOCs: Ki67; assay type: cell-based, human; settings: HFOCs treated with Galunisertib for 48 h vs untreated
# Description: (§1) Hair growth percentages is normalized to day 0.
# FIG. 5. Galunisertib improves cell proliferation and the WNT signaling in the bulb epithelial compartment. a) Representative IHC images of tissue sections of HFOCs untreated and treated with Galunisertib and stained for KI67 and cleaved caspase 3. Nuclei were counterstained with DAPI. Scale bar, 100 μm. b,c) Adjusted intensity levels of KI67 and cleaved caspase 3 per DP and HB (bulb epithelium) areas, respectively, as measured in tissue sections from HFOCs with and without Galunisertib. All values are mean±SD of HFOCs established from n=8 donors (n>16 HFs per condition). ns p≥0.05, *p≤0.05 by unpaired t-test.
# (§2) For immunohistochemistry, 2-day HFOCs are used for immunohistochemistry analysis. Briefly, HFs were embedded on a drop of OCT and stored at −80° C. 8 μm cryosections are air-dried and fixed in 4% PFA (for TGFβ2, cleavage Caspase 3, p-SMAD2 and KI67 immunostainings) or cold acetone (for LEF1 and β-catenin immunostaining). Following 2×5 min rinse with PBS, microsections are permeabilized 2× for 10 min with PBS+0.3% Triton X 100 (PBS-T) and then blocked with PBS+10% fetal bovine serum (FBS) for 1 hour at room temperature. Antibodies are diluted in PBS-T+1% FBS and incubation done overnight at 4° C. […]
# TGFβ2 protein = test: Immunohistochemistry of cryo-sectioned HFOCs: TGFβ2; assay type: cell-based, human
# Description: as §1
# (§3) FIG. 4. Galunisertib inhibits TGFβ2 paracrine signaling in the bulb epithelial compartment. a) Representative Immunohistochemistry (IHC) images of tissue sections of HFOCs untreated and treated with Galunisertib as indicated and stained for TGFβ2 and p-SMAD2. In the upper left frame is exemplified how the dermal papilla (DP) and adjacent bulb epithelial compartment (HB) regions were delineated for quantitative analyses shown in b-e. Nuclei were counterstained with DAPI. Scale bar, 100 μm. b-e) Adjusted intensity levels of TGFβ2 and p-SMAD2 per DP and HB areas as measured in tissue sections from untreated and Galunisertib-treated HFOCs. Values are mean±SD of HFOCs established from n=4 donors (n>9 HFs per condition). ns p≥0.05, *p≤0.05 by unpaired t-test.
# as §2, with “temperature.” for “temperature. Antibodies are diluted in PBS-T+1% FBS and incubation done overnight at 4° C.”
# [2] = test system: phosphorylated SMAD2 (p-SMAD2); test: Western blot of phospho-SMAD2 in hair bulbs of HFOCs; assay type: cell-based, human; settings: HFOCs treated with DHT or DHT+galunisertib for 72 h
# Procedure: For western blot, hair bulbs are dissected from HFOCs treated with DMSO, DHT and Galunisertib for 72 h. Upon rinse in PBS, hair bulbs are lysed in Laemmli buffer (without bromophenol blue) with Halt Protease Inhibitor Cocktail and Halt Phosphatase Inhibitor Cocktail, and lysates are sonicated. Lysates from 10 hair bulbs are used for each condition tested. Total extracts are then loaded in SDS-polyacrylamide gels and transferred onto nitrocellulose membranes for western blot analysis. Membranes are blocked during 1 h with TBS+5% BSA. Primary and secondary antibodies are diluted in TBS+2% BSA accordingly to Supplementary Table 1. Signal is detected using Clarity Western ECL Substrate reagent. A GS-800 calibrated densitometer with Quantity One 1-D Analysis Software 4.6 (Bio-Rad Laboratories) is used for quantitative analysis of protein levels.
# (§4) In addition, only anagen hair follicles are used.
# as §1
# p-SMAD2 = test: Immunohistochemistry of cryo-sectioned HFOCs: p-SMAD2; assay type: cell-based, human
# Description: as §1, §3
# as §2, with “temperature.” for “temperature. Antibodies are diluted in PBS-T+1% FBS and incubation done overnight at 4° C.”
# [3] = test system: human hair follicle organ cultures (HFOCs); test: Ex vivo human scalp hair follicle organ culture: catagen onset and hair shaft elongation; assay type: cell-based; settings: 10 μM; in comparison to untreated controls; 10 days culture
# Description: FIG. 2. Galunisertib delays catagen entry in HFOCs. a) Hair growth ex vivo (HFOCs) under different treatment conditions for 10 days. Representative HF photos for each condition over time are shown in the panels. DP detachment was used as readout for catagen onset. Scale bar, 1 mm. b) Catagen onset timing in HFOCs under different treatment conditions as indicated. c) Percentage of hair shaft elongation in comparison to day 0. In b) and c), values are mean±SD of HFOCs established from n=5 independent donors (n>20 HFs per condition). ns not significant, *p≤0.05, **p≤0.01 by Mann-Whitney (b,c).
# as §4, §1
# [4] = bulb epithelial compartment surrounding the DP, Galunisertib 48 h vs untreated
# [5] = dermal papilla, HFOCs with or without Galunisertib for 48 h
compound,measurement,setting,value
Cc1cccc(-c2nn3c(c2-c2ccnc4ccc(C(N)=O)cc24)CCC3)n1 [Galunisertib],number of bulb epithelial cells staining positive for Ki67,[1],increased number
same,Ki67 fluorescence intensity levels,[1]; bulb epithelium,higher
same,TGFβ2 fluorescence intensity levels at the bulb epithelial compartment,TGFβ2 protein; [4],decreased levels
same,DP levels of TGFβ2 (fluorescence intensity),TGFβ2 protein; [5],isn't any significant change
same,canonical TGFβ signaling activation (phospho-SMAD2 protein levels),[2],blocks TGFβ activation
same,p-SMAD2 fluorescence intensity levels at the bulb epithelial compartment,p-SMAD2; [4],decreased levels
same,p-SMAD2 in DP (fluorescence intensity),p-SMAD2; [5],not significantly reduced
same,catagen entry (mean time HFOCs take to enter catagen),[3],capable of delaying catagen entry
same,hair shaft elongation,[3],impact in the hair shaft elongation
